Biological target: T1, M2 receptor (Homo sapiens, UniProt P08172, DEL233-374)
T1 construct: FLAG (N); expressed in transfected cells
T1 sequence (P08172 with tags, fused parts or gaps DEL233-374): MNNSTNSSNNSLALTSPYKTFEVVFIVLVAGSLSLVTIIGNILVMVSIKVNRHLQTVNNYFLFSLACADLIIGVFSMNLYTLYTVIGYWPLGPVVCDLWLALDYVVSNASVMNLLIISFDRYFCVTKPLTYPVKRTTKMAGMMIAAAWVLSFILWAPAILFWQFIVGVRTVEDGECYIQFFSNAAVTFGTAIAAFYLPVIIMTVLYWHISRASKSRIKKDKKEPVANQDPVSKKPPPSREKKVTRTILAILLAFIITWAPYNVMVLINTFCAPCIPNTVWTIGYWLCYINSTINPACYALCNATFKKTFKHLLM
Assay: Assay of the invention: M2-LgBiT fusion and Nb9-8-SmBiT fusion
Format: cell-based

SMILES: Cc1c(Cl)c(OCC(=O)N2CCN(C)CC2)nc2sc(C(=O)NC3CC3)c(N)c12 [LY2119620]
- agonistic effect on the M2 receptor (LY2119620 itself, data not shown): some agonistic effect
- effect on the dose-response curve of iperoxo (iperoxo DRC with and without LY2119620): effect as a positive allosteric modulator

Source: US20220244254A1, “Screening Methods and Assays for Use with Transmembrane Proteins, in Particular with GPCRs” (CONFO THERAPEUTICS N.V., priority 2019, published 2022)
